Data published in US20250186433A1, “ACSS2 INHIBITORS AND METHODS OF USE THEREOF” (EpiVario, Inc., priority 2017, published 2025).
pIC50: −log10 of the molar value.

Biological target: ACSS2 (Homo sapiens, UniProt Q9NR19)
Test: biochemical
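Also: Pyrophosphatase-coupled ACSS2 enzyme assay, 10 nM protein incubated 90 min at 37 °C with ATP, CoA and acetate, released phosphate read by Biomol Green absorbance at 620 nm.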

Chain of ACSS2 (Q9NR19 whole entry): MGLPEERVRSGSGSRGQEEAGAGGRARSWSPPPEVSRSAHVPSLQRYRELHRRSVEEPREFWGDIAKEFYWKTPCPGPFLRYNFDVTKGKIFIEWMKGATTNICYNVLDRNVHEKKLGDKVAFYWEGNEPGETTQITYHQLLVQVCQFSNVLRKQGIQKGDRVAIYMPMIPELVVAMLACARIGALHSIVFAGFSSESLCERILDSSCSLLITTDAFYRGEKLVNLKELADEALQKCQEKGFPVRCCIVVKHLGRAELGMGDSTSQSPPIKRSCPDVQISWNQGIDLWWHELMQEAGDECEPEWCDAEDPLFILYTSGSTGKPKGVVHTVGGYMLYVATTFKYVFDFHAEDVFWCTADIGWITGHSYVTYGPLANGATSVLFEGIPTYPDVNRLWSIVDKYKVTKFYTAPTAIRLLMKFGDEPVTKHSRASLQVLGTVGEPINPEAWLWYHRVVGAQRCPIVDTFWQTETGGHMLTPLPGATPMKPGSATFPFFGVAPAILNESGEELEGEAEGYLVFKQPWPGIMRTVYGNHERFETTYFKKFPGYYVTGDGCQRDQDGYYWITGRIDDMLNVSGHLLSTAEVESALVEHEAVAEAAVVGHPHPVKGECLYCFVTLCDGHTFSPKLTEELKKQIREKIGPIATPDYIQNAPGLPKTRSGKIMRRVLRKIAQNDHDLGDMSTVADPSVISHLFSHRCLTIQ
Method: The assay is based on a coupling reaction with Pyrophosphatase: ACSS2 is converting ATP+CoA+Acetate=>AMP+pyrophosphate+Acetyl-CoA (Ac-CoA). Pyrophosphatase converts pyrophosphate, a product of the ACSS2 reaction, to phosphate which can be detected by measuring the absorbance at 620 nm after incubation with the Biomol green reagent (Enzo life Science, BML-AK111).
At the end of the reaction, Biomol Green was added for 30 minutes at RT and the activity was measured by reading the absorbance at 620 nm.

Row | pIC50 | Compound
1 | 8.22 to 11.00 | CCC(F)(F)c1cccc(NC(=O)C2C(=O)N(c3ccc4cc(C)n(C)c4c3)N=C2C)c1 (centres unmarked) [compound 502, N-[3-(1,1-difluoropropyl)phenyl]-1-(1,2-dimethylindol-6-yl)-3-methyl-5-oxo-4H-pyrazole-4-carboxamide]
2 | 8.22 to 11.00 | CCC(F)(F)c1cccc(NC(=O)C2C(=O)N(c3ccc(OC)c(-c4ccccc4)n3)N=C2C)c1 (centres unmarked) [compound 498, N-(3-(1,1-difluoropropyl)phenyl)-1-(5-methoxy-6-phenylpyridin-2-yl)-3-methyl-5-oxo-4,5-dihydro-1H-pyrazole-4-carboxamide]
3 | 8.22 to 11.00 | CCC(F)(F)c1cccc(NC(=O)C2C(=O)N(c3ccc4nc[nH]c4c3)N=C2C)c1 (centres unmarked) [compound 500, 1-(1H-benzo[d]imidazol-6-yl)-N-(3-(1,1-difluoropropyl)phenyl)-3-methyl-5-oxo-4,5-dihydro-1H-pyrazole-4-carboxamide]
4 | 8.22 to 11.00 | CCC(F)(F)c1cccc(NC(=O)C2C(=O)N(c3ccc4ccn(Cc5ccccc5)c4c3)N=C2C)c1 (centres unmarked) [compound 463, 1-(1-benzylindol-6-yl)-N-[3-(1,1-difluoropropyl)phenyl]-3-methyl-5-oxo-4H-pyrazole-4-carboxamide]
5 | 7.00 to 8.22 | COc1cccc(Cc2cc(-c3cccnc3)cc(N3N=C(C)C(C(=O)Nc4cccc(C(C)(F)F)c4)C3=O)c2)c1 (centres unmarked) [compound 461]
6 | 8.22 to 11.00 | CCC(F)(F)c1cccc(NC(=O)C2C(=O)N(c3ccc(C#N)cc3)N=C2C)c1 (centres unmarked) [compound 501, 1-(4-cyanophenyl)-N-(3-(1,1-difluoropropyl)phenyl)-3-methyl-5-oxo-4,5-dihydro-1H-pyrazole-4-carboxamide]
7 | 8.22 to 11.00 | CC1=NN(c2ccc(OC(F)F)cc2)C(=O)C1C(=O)Nc1cccc(C(F)(F)C2CC2)c1 (centres unmarked) [compound 481, N-(3-(cyclopropyldifluoromethyl)phenyl)-1-(4-(difluoromethoxy)phenyl)-3-methyl-5-oxo-4,5-dihydro-1H-pyrazole-4-carboxamide]
8 | 8.22 to 11.00 | C/C=C(/F)c1cccc(NC(=O)C2C(=O)N(c3ccc(OC(F)F)cc3)N=C2C)c1 (centres unmarked) [compound 495, (E)-1-(4-(difluoromethoxy)phenyl)-N-(3-(1-fluoroprop-1-en-1-yl)phenyl)-3-methyl-5-oxo-4,5-dihydro-1H-pyrazole-4-carboxamide]
9 | 8.22 to 11.00 | CCC(F)(F)c1cccc(NC(=O)C2C(=O)N(c3ccc4ccn(C(=O)c5ccc(O)cc5)c4c3)N=C2C)c1 (centres unmarked) [compound 482, N-(3-(1,1-difluoropropyl)phenyl)-1-(1-(4-hydroxybenzoyl)-1H-indol-6-yl)-3-methyl-5-oxo-4,5-dihydro-1H-pyrazole-4-carboxamide]
10 | 7.00 to 8.22 | CCC(F)(F)c1cc(NC(=O)C2C(=O)N(c3ccc(OC(F)F)cc3)N=C2C)ccn1 (centres unmarked) [compound 506, 1-(4-(difluoromethoxy)phenyl)-N-(2-(1,1-difluoropropyl)pyridin-4-yl)-3-methyl-5-oxo-4,5-dihydro-1H-pyrazole-4-carboxamide]
11 | 8.22 to 11.00 | CCC(F)(F)c1cccc(NC(=O)C2C(=O)N(c3ccc4ccn(C(=O)c5ccccc5)c4c3)N=C2C)c1 (centres unmarked) [compound 475, 1-(1-benzoylindol-6-yl)-N-[3-(1,1-difluoropropyl)phenyl]-3-methyl-5-oxo-4H-pyrazole-4-carboxamide]
12 | 8.22 to 11.00 | CCC(F)(F)c1cccc(NC(=O)C2C(=O)N(c3ccc4ccoc4c3)N=C2C)c1 (centres unmarked) [compound 491, 1-(benzofuran-6-yl)-N-(3-(1,1-difluoropropyl)phenyl)-3-methyl-5-oxo-4,5-dihydro-1H-pyrazole-4-carboxamide]
13 | 8.22 to 11.00 | CCC(F)(F)c1cccc(NC(=O)C2C(=O)N(c3ccc4ccn(S(=O)(=O)c5ccccc5)c4c3)N=C2C)c1 (centres unmarked) [compound 476, N-(3-(1,1-difluoropropyl)phenyl)-3-methyl-5-oxo-1-(1-(phenylsulfonyl)-1H-indol-6-yl)-4,5-dihydro-1H-pyrazole-4-carboxamide]
14 | 8.22 to 11.00 | CCC(F)(F)c1cccc(NC(=O)C2C(=O)N(c3ccc(OC(F)F)cc3)N=C2C)n1 (centres unmarked) [compound 486, 1-(4-(difluoromethoxy)phenyl)-N-(6-(1,1-difluoropropyl)pyridin-2-yl)-3-methyl-5-oxo-4,5-dihydro-1H-pyrazole-4-carboxamide]
15 | 7.00 to 8.22 | CCC(F)(F)c1cccc(NC(=O)C2C(=O)N(c3ccc4ccn(C(=O)c5cccc(C)c5)c4c3)N=C2C)c1 (centres unmarked) [compound 483, N-[3-(1,1-difluoropropyl)phenyl]-3-methyl-1-[1-(3-methylbenzoyl)indol-6-yl]-5-oxo-4H-pyrazole-4-carboxamide]
16 | 6.00 to 7.00 | CC1=NN(c2ccc(OC(F)F)cc2)C(=O)C1C(=O)Nc1ccnc(C#N)c1 (centres unmarked) [compound 504, N-(2-cyanopyridin-4-yl)-1-(4-(difluoromethoxy)phenyl)-3-methyl-5-oxo-4,5-dihydro-1H-pyrazole-4-carboxamide]
17 | 7.00 to 8.22 | CCC(F)(F)c1cccc(NC(=O)C2C(=O)N(c3ccc(Cl)nn3)N=C2C)c1 (centres unmarked) [compound 490, 1-(6-chloropyridazin-3-yl)-N-(3-(1,1-difluoropropyl)phenyl)-3-methyl-5-oxo-4,5-dihydro-1H-pyrazole-4-carboxamide]
18 | 6.00 to 7.00 | CCC(F)(F)c1cccc(NC(=O)C2C(=O)N(c3cnc(OC)cn3)N=C2C)c1 (centres unmarked) [compound 512, N-(3-(1,1-difluoropropyl)phenyl)-1-(5-methoxypyrazin-2-yl)-3-methyl-5-oxo-4,5-dihydro-1H-pyrazole-4-carboxamide]
19 | 8.22 to 11.00 | CCC(F)(F)c1cccc(NC(=O)C2C(=O)N(c3ccc(OC)c(-c4ccnc(C)c4)c3)N=C2C)c1 (centres unmarked) [compound 530, N-(3-(1,1-difluoropropyl)phenyl)-1-(4-methoxy-3-(2-methylpyridin-4-yl)phenyl)-3-methyl-5-oxo-4,5-dihydro-1H-pyrazole-4-carboxamide]
20 | 8.22 to 11.00 | CCC(F)(F)c1cccc(NC(=O)C2C(=O)N(c3ccc(OC)cc3F)N=C2C)c1 (centres unmarked) [compound 505, N-(3-(1,1-difluoropropyl)phenyl)-1-(2-fluoro-4-methoxyphenyl)-3-methyl-5-oxo-4,5-dihydro-1H-pyrazole-4-carboxamide]
21 | 8.22 to 11.00 | CCC(F)(F)c1cccc(NC(=O)C2C(=O)N(c3ccc4ccn(C(=O)c5cccc(O)c5)c4c3)N=C2C)c1 (centres unmarked) [compound 493, N-(3-(1,1-difluoropropyl)phenyl)-1-(1-(3-hydroxybenzoyl)-1H-indol-6-yl)-3-methyl-5-oxo-4,5-dihydro-1H-pyrazole-4-carboxamide]
22 | 8.22 to 11.00 | CCC(F)(F)c1cccc(NC(=O)C2C(=O)N(c3ccc4ccn(C)c4c3)N=C2C)c1 (centres unmarked) [compound 462, N-[3-(1,1-difluoropropyl)phenyl]-3-methyl-1-(1-methylindol-6-yl)-5-oxo-4H-pyrazole-4-carboxamide]
23 | 8.22 to 11.00 | CCC(F)(F)c1cccc(NC(=O)C2C(=O)N(c3ccc(OC)c(-c4ncccc4C)c3)N=C2C)c1 (centres unmarked) [compound 535, N-(3-(1,1-difluoropropyl)phenyl)-1-(4-methoxy-3-(3-methylpyridin-2-yl)phenyl)-3-methyl-5-oxo-4,5-dihydro-1H-pyrazole-4-carboxamide]
24 | 8.22 to 11.00 | CCC(F)(F)c1cccc(NC(=O)C2C(=O)N(c3cccc4occc34)N=C2C)c1 (centres unmarked) [compound 492, 1-(benzofuran-4-yl)-N-(3-(1,1-difluoropropyl)phenyl)-3-methyl-5-oxo-4,5-dihydro-1H-pyrazole-4-carboxamide]
25 | 8.22 to 11.00 | CCC(F)(F)c1cccc(NC(=O)C2C(=O)N(c3ccc(OC)c(-c4cccc(C)n4)c3)N=C2C)c1 (centres unmarked) [compound 536, N-(3-(1,1-difluoropropyl)phenyl)-1-(4-methoxy-3-(6-methylpyridin-2-yl)phenyl)-3-methyl-5-oxo-4,5-dihydro-1H-pyrazole-4-carboxamide]
26 | 8.22 to 11.00 | CCC(F)(F)c1cccc(NC(=O)C2C(=O)N(c3ccc(OC)nn3)N=C2C)c1 (centres unmarked) [compound 510, N-(3-(1,1-difluoropropyl)phenyl)-1-(6-methoxypyridazin-3-yl)-3-methyl-5-oxo-4,5-dihydro-1H-pyrazole-4-carboxamide]
